In patent publication US11179363B2, “Non-steroidal selective glucocorticoid receptor agonistic modulators (SEGRAMs) and uses thereof” (ASSOCIATION POUR LA RECHERCHE À L'IGBMC (ARI), priority 2017, dated 2021):

How the values were obtained:
corneal epithelial cells = settings: in vitro; cited from earlier work
[1] = biological target: T1, glucocorticoid receptor (GR) (Mus musculus, UniProt P06537); assay: In vivo transcriptional analysis (q-RT-PCR) of the three GR functions in mouse ears; design: species or system Balb/C mice; settings: topical 18 hours, 1 nmole/cm^2
T1 construct: RNA transcripts were then extracted from mouse ears; from tissue; host or cells: ear skin of Balb/C mice (in vivo topical treatment)
T1 sequence (P06537 1-792): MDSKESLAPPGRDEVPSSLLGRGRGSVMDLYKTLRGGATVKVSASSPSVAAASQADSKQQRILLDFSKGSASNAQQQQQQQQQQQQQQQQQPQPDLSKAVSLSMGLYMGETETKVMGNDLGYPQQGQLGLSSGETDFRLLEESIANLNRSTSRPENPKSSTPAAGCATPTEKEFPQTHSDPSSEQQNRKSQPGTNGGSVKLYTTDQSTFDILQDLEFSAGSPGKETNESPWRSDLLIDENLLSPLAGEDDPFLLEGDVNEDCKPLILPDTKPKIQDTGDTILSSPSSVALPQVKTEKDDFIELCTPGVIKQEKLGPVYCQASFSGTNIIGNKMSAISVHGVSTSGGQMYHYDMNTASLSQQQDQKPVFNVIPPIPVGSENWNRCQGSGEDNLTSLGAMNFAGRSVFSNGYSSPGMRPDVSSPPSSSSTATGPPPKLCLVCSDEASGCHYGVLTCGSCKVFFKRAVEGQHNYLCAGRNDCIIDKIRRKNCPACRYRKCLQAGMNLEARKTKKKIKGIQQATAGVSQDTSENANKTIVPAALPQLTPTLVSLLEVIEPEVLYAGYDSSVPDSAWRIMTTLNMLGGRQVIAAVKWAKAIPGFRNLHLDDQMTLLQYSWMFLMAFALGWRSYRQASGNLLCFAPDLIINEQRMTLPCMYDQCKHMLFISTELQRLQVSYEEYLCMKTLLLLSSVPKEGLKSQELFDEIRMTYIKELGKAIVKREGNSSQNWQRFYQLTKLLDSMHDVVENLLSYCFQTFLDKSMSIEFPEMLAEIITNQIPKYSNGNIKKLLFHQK
Protocol: RNA transcripts were then extracted from mouse ears and the transcripts of 4 genes were analyzed by q-RT-PCR: • (i) the directly GR-transactivated gene of the mTOR inhibitor REDD1, • (ii) the GR-directly transrepressed gene of keratin 5 (K5) and • (iii) the GR-indirectly “tethered” transrepressed genes of interleukin-1β (IL-1β) and interleukin-6 (IL-6), both being activated in presence of 12-O-tetradecanoylphorbol-13-acetate (TPA). Results

[2] = test system: experimental models of dry eye and postoperative inflammation; settings: in vivo, cited from earlier work

SMILES: Cc1ccc2c(NC[C@](O)(CC(C)(C)c3cc(F)cc4c3OCC4)C(F)(F)F)cccc2n1 [Mapracorat]
- anti-inflammatory action in corneal epithelial cells challenged with osmotic stress (corneal epithelial cells): act as an anti-inflammatory agent
- GR functions induced (direct transactivation, direct transrepression, indirect tethered transrepression) [1]: induces all three GR functions
- side effects in intraocular pressure and body weight ([2]; vs dexamethasone): reduced side effects
- anti-inflammatory activity vs dexamethasone [2]: comparable
